Source: publication PMC10551045 (Journal of the American Chemical Society, 2023)
Read-outs that look alike come from different tables or passages of the source.

How the values were obtained:
GBM-F = experiment: cell killing, GBM-F patient-derived GBM CSC line; format: cell-based, human; conditions: for IC50: read-out: GBM-F IC50
GBM-A = experiment: cell killing, GBM-A patient-derived GBM CSC line; format: cell-based, human; conditions: for IC50: read-out: GBM-A IC50
[1] = target: T1, recombinant human full-length RIPK2 (Homo sapiens, UniProt O43353); conditions: read-out: apparent Kd for RIPK2; cited from earlier work
[2] = system: WA09 human ES cell-derived neural progenitor cells (NPC); experiment: cytotoxicity in control neural progenitor cells; format: cell-based; conditions: for IC50: read-out: NPC IC50
Casp-3/7 = experiment: Caspase-Glo 3/7 assay in HT-1080 cells; format: cell-based; conditions: for Casp3/7 activation on SLC35F2 shRNA knockdown: HT-1080; for Casp-3/7 activation in RIPK2 shRNA knockdown cells vs non-targeting control: HT-1080, 8 hours; for Casp-3/7 activation: HT-1080, 8 hours of treatment
HT-1080 cells = experiment: Cell-titer glo cell viability in HT-1080 cells after shRNA RIPK2 knockdown; format: cell-based; conditions: HT-1080, RIPK2 shRNA vs control, 24 hours; YM155 4 nM, aYM155 40 nM
[3] = system: U87EGFRvIII intracranial xenografts; experiment: orthotopic intracranial GBM xenograft, tumor growth by FMT; format: in vivo, athymic nude mice; conditions: oral, 5mg/kg and 15 mg/kg, B.I.D.
[4] = system: GBM CSCs and non-diseased cells; experiment: MS-based metabolite identification of aYM155 activation in cells; format: cell-based, human; conditions: 100 nM, 24 hours
[5] = system: control neural cell types; experiment: cytotoxicity in control neural cell types; format: cell-based, human; conditions: read-out: IC50 in control neural cell types
[6] = system: primary human astrocytes (HA); experiment: cytotoxicity in control primary human astrocytes; format: cell-based; conditions: for IC50: read-out: HA IC50
LN229 = experiment: cytotoxicity in hyper-MGMT methylated cell line; format: cell-based
[7] = two-week mouse tolerability study; format: in vivo; conditions: oral, 1.0 and 5.0 mg/kg B.I.D., two weeks, naïve animals
survivin mRNA = format: in vivo, athymic nude mice; conditions: 1 hour after last dose of 9-day regimen
[8] = brain tissue distribution pharmacokinetic study; conditions: 10 mg/kg, P.O., CD-1 mice
U118MG = experiment: cytotoxicity in hypo-MGMT methylated cell line; format: cell-based; conditions: read-out: U118MG IC50
[9] = system: primary human lung fibroblasts (HLF); experiment: cytotoxicity in control primary human lung fibroblasts; format: cell-based; conditions: read-out: HLF IC50
hERG channel = hERG channel (Homo sapiens, UniProt Q12809); experiment: hERG channel inhibition assay; format: biochemical; conditions: at 3 μM, highest tested concentration
U87-EGFRvIII cells = experiment: Cell-titer glo cell viability in U87-EGFRvIII cells after shRNA knockdown; format: cell-based; conditions: for cell viability on loss of RIPK2 / sensitivity following shRNA-mediated RIPK1 knockdown: U87-EGFRvIII; for cell viability on loss of RIPK2: RIPK2 shRNA vs control, YM155 20 nM, aYM155 160 nM; for sensitivity following shRNA-mediated RIPK1 knockdown: induced tumor cell death; for IC50: read-out: 24-hour IC50 value
Survivin [10] = experiment: Western blot of survivin in U87-EGFRvIII cells after shRNA RIPK2 knockdown; format: cell-based; conditions: U87MG stably expressing EGFRvIII, 100 nM, 24 hours
[11] = target: T1, recombinant human full-length RIPK2; experiment: in vitro competitive binding, UV-dependent labeling of RIPK2 by cRIPGBM-PAP
IκBα phosphorylation = IκBα phosphorylation after NOD2 stimulation with L-18 MDP; format: cell-based; conditions: U87EGFRvIII cells, pretreatment 100nM, L-18 MDP stimulation
Casp-1 = Casp-1 activation in cells; format: cell-based; conditions: HT-1080, EGFRvIII amplified U87MG cells and GBM CSCs
[12] = system: HT-1080 fibrosarcoma cells; experiment: cytotoxicity in HT-1080 fibrosarcoma cells; format: cell-based; conditions: Homo sapiens, HT-1080, read-out: HT-1080 IC50
Survivin [13] = experiment: Western blot of survivin in HT-1080 cells after shRNA RIPK2 knockdown; format: cell-based; conditions: 24 hours

T1 sequence (O43353 whole entry): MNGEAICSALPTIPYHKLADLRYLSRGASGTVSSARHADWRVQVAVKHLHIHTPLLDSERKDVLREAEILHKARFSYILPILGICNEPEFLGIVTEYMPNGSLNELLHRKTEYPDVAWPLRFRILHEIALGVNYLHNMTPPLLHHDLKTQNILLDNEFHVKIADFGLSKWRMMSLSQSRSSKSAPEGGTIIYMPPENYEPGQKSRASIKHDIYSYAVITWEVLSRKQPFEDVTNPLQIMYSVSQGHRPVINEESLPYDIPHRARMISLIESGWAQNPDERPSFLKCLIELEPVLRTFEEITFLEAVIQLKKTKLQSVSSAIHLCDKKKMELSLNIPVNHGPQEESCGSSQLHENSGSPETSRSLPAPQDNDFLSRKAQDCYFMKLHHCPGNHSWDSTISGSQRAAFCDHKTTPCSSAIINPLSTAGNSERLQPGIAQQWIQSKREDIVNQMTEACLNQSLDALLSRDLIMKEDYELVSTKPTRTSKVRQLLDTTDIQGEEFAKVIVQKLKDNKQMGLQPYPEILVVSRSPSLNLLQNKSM
hERG channel, sequence (Q12809 whole entry): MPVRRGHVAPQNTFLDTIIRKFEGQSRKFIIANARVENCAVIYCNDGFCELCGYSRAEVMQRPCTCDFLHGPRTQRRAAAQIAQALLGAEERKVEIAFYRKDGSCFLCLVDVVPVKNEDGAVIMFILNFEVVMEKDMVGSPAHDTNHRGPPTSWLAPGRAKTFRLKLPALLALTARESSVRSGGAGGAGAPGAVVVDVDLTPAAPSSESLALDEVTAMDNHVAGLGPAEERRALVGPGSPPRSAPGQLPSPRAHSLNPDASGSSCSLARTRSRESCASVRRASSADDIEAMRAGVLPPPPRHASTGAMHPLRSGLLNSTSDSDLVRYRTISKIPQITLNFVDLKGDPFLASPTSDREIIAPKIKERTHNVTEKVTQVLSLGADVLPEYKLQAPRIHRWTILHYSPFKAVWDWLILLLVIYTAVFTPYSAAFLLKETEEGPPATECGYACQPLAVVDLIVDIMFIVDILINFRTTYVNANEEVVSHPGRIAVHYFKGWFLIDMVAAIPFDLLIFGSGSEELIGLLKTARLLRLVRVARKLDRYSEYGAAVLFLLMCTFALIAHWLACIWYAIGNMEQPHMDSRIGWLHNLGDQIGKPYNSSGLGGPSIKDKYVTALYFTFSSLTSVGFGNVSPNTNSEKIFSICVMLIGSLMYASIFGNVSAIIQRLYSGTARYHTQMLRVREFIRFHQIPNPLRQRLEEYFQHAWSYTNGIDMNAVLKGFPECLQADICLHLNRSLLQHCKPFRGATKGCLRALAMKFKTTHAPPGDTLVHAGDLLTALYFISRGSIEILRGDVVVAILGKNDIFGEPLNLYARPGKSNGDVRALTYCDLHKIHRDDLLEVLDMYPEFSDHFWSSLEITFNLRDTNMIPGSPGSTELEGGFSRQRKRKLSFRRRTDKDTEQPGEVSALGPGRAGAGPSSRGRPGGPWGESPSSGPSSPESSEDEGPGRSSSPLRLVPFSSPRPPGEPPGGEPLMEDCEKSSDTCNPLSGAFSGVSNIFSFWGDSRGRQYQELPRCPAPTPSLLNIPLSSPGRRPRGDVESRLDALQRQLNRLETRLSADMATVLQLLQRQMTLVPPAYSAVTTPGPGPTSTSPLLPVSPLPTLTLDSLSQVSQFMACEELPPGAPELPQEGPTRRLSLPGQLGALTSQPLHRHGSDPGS

In the case of `Cc1n(Cc2ccc(F)cc2)c2c([n+]1Cc1ccccc1)C(=O)c1ccccc1C2=O` [cRIPGBM], the IC50 (GBM-F; cell killing) is reported as 70 nM and the IC50 (GBM-A; cell killing, 72 hours) is reported as 27 nM.
In the case of `Cc1n(Cc2ccc(N=[N+]=[N-])cc2)c2c([n+]1CCOCCOCCNC(=O)CCCC[C@@H]1SC[C@@H]3NC(=O)N[C@@H]31)C(=O)c1ccccc1C2=O` [cRIPGBM-PAP], the Kd [1] is given as 2300 nM.
For `COCCN(C(C)=O)C1=C(NCc2cnccn2)C(=O)c2ccccc2C1=O` [aYM155], the “fold less potent compared to YM155” value ([2]; NPC) was 19 fold, the IC50 ([2]; control cell type, 72 hours) was 97 nM and the “Casp3/7 activation on SLC35F2 shRNA knockdown” value (Casp-3/7) was “ablated”. For the same molecule, the “Casp-3/7 activation in RIPK2 shRNA knockdown cells vs non-targeting control” value (Casp-3/7) was “significantly reduced”, the Casp-3/7 activation (Casp-3/7) was “Casp-3/7 activation was observed” and the “cell viability on loss of RIPK2” value (HT-1080 cells) was “significant rescue of cell viability”. The “tumor growth by FMT imaging” value [3] was “significant inhibition of tumor growth”, the “rates of conversion to YM155 in GBM CSC populations compared to non-transformed control cell types” value [4] was “significantly higher” and the IC50 ([5]; HA and NPC) was 62 to 97 nM. The “fold less potent compared to YM155” value ([6]; HA) was 12 fold, the IC50 ([6]; control cell type, 72 hours) was 62 nM and the IC50 (LN229; read-out: LN229 IC50, hyper-MGMT methylated) was 12 nM. For the same molecule, the “tolerability (weight loss and behavioral observations)” value [7] was “well tolerated”, the “survivin expression levels in human tumor tissue” value (survivin mRNA; 5 and 15 mg/kg B.I.D.) was “significantly decrease survivin expression levels” and the “survivin expression in normal brain tissue” value (survivin mRNA) was “no effect”. The “brain Cmax” value [8] was 32 nM, the brain/plasma concentration ratio [8] was 0.56 and the IC50 (U118MG; hypo-MGMT methylated) was 11 nM. The IC50 ([9]; control cell type) was 2000 nM, the “potency compared to YM155” value (GBM-F; GBM-F) was “~ equivalent” and the IC50 (GBM-F; cell killing, 72 hours) was 0.65 nM. For the same molecule, the hERG channel inhibition (hERG channel) was less than 20%, the “fold less potent compared to YM155” value (GBM-A; GBM-A) was 2.2 fold and the IC50 (GBM-A; cell killing, 72 hours) was 10 nM. The “cell viability on loss of RIPK2” value (U87-EGFRvIII cells; 24 hours) was “significant rescue of cell viability”, the “sensitivity following shRNA-mediated RIPK1 knockdown” value (U87-EGFRvIII cells) was “No significant differences in sensitivity” and the IC50 (U87-EGFRvIII cells; U87-EGFRvIII cells, 24 hours) was 160 nM.
With `CC(=O)N(Cc1ccc(F)cc1)C1=C(NCc2ccccc2)C(=O)c2ccccc2C1=O` [RIPGBM] the IC50 (GBM-F; cell killing) was 400 nM and the IC50 (GBM-A; cell killing, 72 hours) was 200 nM.
In the case of `COCCn1c2c([n+](Cc3cnccn3)c1C)C(=O)c1ccccc1C2=O` [YM155, sepantronium bromide], the IC50 ([2]; Homo sapiens, 72 h) is reported as 5 nM, the “Casp3/7 activation on SLC35F2 shRNA knockdown” value (Casp-3/7) is reported as “ablated” and the “Casp-3/7 activation in RIPK2 shRNA knockdown cells vs non-targeting control” value (Casp-3/7) is reported as “significantly reduced”. For the same molecule, the Casp-3/7 activation (Casp-3/7) was “Casp-3/7 activation was observed”, the “cell viability on loss of RIPK2” value (HT-1080 cells) was “significant rescue of cell viability” and the “survivin expression on RIPK2 knockdown” value (Survivin [10]) was “significant rescue of survivin expression”. For the same molecule, the “potency of inhibition of cRIPGBM-PAP RIPK2 labeling relative to cRIPGBM” value [11] was ~ 10 fold, the “inhibition of UV-dependent covalent labeling of RIPK2 by cRIPGBM-PAP” value ([11]; cRIPGBM-PAP 1 μM, at concentrations as low as 30nM) was “at least 50%” and the “IKK activation (IκBα phosphorylation)” value (IκBα phosphorylation) was “reduced IKK activation”. For the same molecule, the IC50 ([5]; Homo sapiens) was 5 nM, the IC50 ([6]; Homo sapiens, Astrocyte, 72 h) was 5.1 nM and the IC50 (LN229; Homo sapiens, LN-229, read-out: LN229 IC50) was 2.8 nM. The Casp-1 activation (Casp-1) was “time dependent activation of Casp-1”, the IC50 [12] was 3.1 nM and the brain exposure [8] was “no brain exposure above limits of quantification”. It also gave an IC50 (U118MG; Homo sapiens, U-118-MG) of 3.7 nM, an IC50 ([9]; Homo sapiens, Fibroblast) of 92 nM and an IC50 (GBM-F; Homo sapiens, 72 h) of 0.78 nM. The IC50 (GBM-A; Homo sapiens, 72 h) was 4.5 nM, the “concentration required to significantly impact survivin protein levels” value (Survivin [13]; HT-1080 RIPK2 shRNA cells) was 100 nM and the “concentration giving significant reduction of survivin protein levels” value (Survivin [13]; HT-1080 non-targeting shRNA control cells) was 10 nM. The IC50 (U87-EGFRvIII cells; 24 h) was 20 nM, the “cell viability on loss of RIPK2” value (U87-EGFRvIII cells; 24 hours) was “significant rescue of cell viability” and the “sensitivity following shRNA-mediated RIPK1 knockdown” value (U87-EGFRvIII cells) was “No significant differences in sensitivity”.
